The record followed here is US20250380697A1, “ISOXAZOLINE DERIVATIVE COMPOUND AND INSECTICIDAL COMPOSITION COMPRISING SAME” (KYUNG NONG CORPORATION, priority 2022, published 2025).

Experiment [1] has as its system Frankliniella occidentalis. Description: Pesticidal activity against Frankliniella occidentalis, spray method. Type of experiment: in vivo. As to conditions: 48 h, read-out: mortality rate, Frankliniella occidentalis. An outline of the steps:
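Ten F. occidentalis adults per dish sprayed with compound at 100 ppm in water/acetone 50,000 mg/L/Triton X-100 100 mg/L, then given a soybean cotyledon. Held at 25±1 °C, 50-60% RH, 16:8 h light:dark; live adults counted 48 h after inoculation to give mortality.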

Experiment [2] has as its system Spodoptera frugiperda. Description: Pesticidal activity against Spodoptera frugiperda, leaf-dipping method. Type of experiment: in vivo. As to conditions: counted 24, 48, 72 hours, time not given, read-out: mortality rate, Spodoptera frugiperda. The procedure:
Cabbage (Daiya) leaves were cut into pieces with a diameter of 5.8 cm, dipped in the pesticide composition where the compound of Synthesis Example 2 was diluted (the solvent=distilled water+acetone 50,000 mg/L+Triton X-100 100 mg/L) for 30 seconds, and sufficiently shade-dried. Then, the shade-dried cabbage leaves were placed in a petri dish (8.8 cm in diameter) covered with filter paper and repeatedly inoculated 3-5 times with the second to the third instar larvae of Spodoptera frugiperda, 10 larvae per inoculation. In particular, the Spodoptera frugiperda larvae used were those which were provided by Chung Buk University (Korea) and bred indoors for multiple generations. Then, the Spodoptera frugiperda larvae were stored under the conditions of 16 hours of light and 8 hours of dark, 25±1° C. and 50-60% relative humidity, and the number of live Spodoptera frugiperda larvae was counted 24, 48, and 72 hours after the inoculation. Thereafter, the larvae mortality rate was calculated in the same manner as in Test Example 1 above.

The structures appear in SMILES notation.

What is called mortality is the percentage killed. Consider `Cc1cc(C2=NOC(c3cc(Cl)cc(C(F)(F)F)c3)(C(F)(F)F)C2)ccc1C(=O)NC(=O)C1CC1` (racemic) [Synthesis Example 2], for which, in experiment [1], the mortality at 1 ppm was determined as 100%, the mortality at 5 ppm was 100% and the mortality at 10 ppm came to 100%. Further, in experiment [2], the mortality at 0.1 ppm is 100%, the mortality at 1 ppm is 100% and the mortality at 10 ppm came out at 100%.

For the molecule `CON=CNC(=O)c1ccc(C2=NOC(c3cc(Cl)cc(Cl)c3)(C(F)(F)F)C2)cc1C` (stereo not drawn) [Comparative Example 1, fluxametamide], in experiment [1], the mortality at 1 ppm was 7%, the mortality at 5 ppm was 13% and the mortality at 10 ppm was found to be 50%. Further, in experiment [2], the mortality at 0.1 ppm was 100%, the mortality at 1 ppm turned out to be 100% and the mortality at 10 ppm was found to be 100%.
